# Reference: PMC10850208, “Engineering amino acid residues of pentacyclic triterpene synthases for improving the activity” (Applied Microbiology and Biotechnology, 2024)
# How the values were obtained:
# Experiment in all cases: product titer in engineered yeast by UHPLC
# Format in all cases: cell-based
# [1] = molecular target: T1, OEW (lupeol synthase from Olea europaea) (Olea europaea, UniProt Q9SLW3); details: endogenous substrate of S. cerevisiae, not added; 30 °C, 72 h shake flask
# T1 construct: synthesized gene, one copy integrated in the genome of S. cerevisiae SP1, PGK1 promoter; whole-cell production
# T1 sequence (Q9SLW3 1-758): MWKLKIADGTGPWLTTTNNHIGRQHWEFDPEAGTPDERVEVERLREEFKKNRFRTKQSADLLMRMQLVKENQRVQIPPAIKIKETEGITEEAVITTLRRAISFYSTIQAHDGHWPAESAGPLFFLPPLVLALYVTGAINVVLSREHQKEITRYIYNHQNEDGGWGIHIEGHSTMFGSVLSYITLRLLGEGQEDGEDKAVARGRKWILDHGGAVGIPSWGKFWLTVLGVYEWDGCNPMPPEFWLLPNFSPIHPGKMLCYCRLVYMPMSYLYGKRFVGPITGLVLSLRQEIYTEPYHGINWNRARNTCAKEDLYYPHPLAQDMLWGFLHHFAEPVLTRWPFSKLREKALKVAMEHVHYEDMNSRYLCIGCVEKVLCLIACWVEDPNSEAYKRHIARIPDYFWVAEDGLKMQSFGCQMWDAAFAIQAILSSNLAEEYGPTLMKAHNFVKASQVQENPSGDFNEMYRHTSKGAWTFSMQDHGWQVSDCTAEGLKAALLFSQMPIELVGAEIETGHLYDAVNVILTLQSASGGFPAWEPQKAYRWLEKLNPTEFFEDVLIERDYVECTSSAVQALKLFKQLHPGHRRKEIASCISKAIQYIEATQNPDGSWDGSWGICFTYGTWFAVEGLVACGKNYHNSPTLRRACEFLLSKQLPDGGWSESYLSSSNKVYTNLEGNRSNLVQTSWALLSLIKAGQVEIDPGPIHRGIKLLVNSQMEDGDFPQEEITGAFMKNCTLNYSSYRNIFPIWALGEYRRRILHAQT
# [2] = molecular target: T2, MdOSC1 (α-amyrin synthase from Malus × domestica) (Malus domestica, UniProt C7SCX0); details: endogenous substrate of S. cerevisiae, not added; 30 °C, 72 h shake flask; mixed product with β-amyrin
# T2 construct: gene OSC1; synthesized gene, one copy integrated in the genome of S. cerevisiae SP1, PGK1 promoter; whole-cell production
# [3] = molecular target: T3, GgbAS (β-amyrin synthase from Glycyrrhiza glabra) (Glycyrrhiza glabra, UniProt Q9MB42); details: endogenous substrate of S. cerevisiae, not added; 30 °C, 72 h shake flask
# T3 construct: gene bAS1; synthesized gene, one copy integrated in the genome of S. cerevisiae SP1, PGK1 promoter; whole-cell production
# T3 sequence (Q9MB42 whole entry): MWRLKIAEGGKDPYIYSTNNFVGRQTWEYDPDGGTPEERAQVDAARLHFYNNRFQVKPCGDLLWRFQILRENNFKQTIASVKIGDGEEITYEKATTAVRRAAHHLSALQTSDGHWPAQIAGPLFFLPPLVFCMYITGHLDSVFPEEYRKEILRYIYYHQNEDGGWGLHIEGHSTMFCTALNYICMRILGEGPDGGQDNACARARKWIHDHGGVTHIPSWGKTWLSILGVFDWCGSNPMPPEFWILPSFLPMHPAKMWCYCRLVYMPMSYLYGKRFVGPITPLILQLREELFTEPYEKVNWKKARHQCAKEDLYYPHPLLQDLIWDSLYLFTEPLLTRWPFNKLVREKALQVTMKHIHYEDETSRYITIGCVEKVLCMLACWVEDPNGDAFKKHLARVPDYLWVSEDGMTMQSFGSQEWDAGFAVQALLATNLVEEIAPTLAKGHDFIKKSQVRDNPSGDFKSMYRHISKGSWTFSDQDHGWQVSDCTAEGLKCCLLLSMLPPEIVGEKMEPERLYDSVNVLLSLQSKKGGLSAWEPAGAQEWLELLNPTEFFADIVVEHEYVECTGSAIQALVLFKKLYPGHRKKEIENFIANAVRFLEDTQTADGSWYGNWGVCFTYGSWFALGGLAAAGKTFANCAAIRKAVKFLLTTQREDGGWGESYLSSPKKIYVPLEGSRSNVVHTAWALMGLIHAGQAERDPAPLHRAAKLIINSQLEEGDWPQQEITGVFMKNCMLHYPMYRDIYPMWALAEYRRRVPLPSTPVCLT
# T2 sequence (C7SCX0 entry or part of it): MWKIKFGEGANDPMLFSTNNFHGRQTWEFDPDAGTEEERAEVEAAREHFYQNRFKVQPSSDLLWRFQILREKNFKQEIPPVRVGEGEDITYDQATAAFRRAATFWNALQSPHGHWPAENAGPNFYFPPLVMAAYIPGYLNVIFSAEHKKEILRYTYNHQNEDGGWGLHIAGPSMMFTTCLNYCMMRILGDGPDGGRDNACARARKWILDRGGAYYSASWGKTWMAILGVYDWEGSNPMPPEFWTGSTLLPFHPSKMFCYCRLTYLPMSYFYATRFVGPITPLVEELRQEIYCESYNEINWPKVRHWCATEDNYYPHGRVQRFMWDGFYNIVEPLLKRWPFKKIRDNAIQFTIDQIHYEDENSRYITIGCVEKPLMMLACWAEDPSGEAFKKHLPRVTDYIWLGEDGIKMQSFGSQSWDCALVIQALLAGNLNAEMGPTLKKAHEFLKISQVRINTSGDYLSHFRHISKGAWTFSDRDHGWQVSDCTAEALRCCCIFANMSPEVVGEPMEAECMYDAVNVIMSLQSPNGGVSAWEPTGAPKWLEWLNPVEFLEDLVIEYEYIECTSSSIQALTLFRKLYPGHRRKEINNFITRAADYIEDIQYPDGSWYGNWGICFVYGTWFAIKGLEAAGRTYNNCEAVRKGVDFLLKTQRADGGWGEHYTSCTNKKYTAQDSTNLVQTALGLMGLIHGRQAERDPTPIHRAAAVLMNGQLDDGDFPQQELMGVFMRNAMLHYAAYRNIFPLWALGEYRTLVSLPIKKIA
smiles,measurement,setting,value
C=C(C)[C@@H]1CC[C@]2(C)CC[C@]3(C)[C@H](CC[C@@H]4[C@@]5(C)CC[C@H](O)C(C)(C)[C@@H]5CC[C@]43C)[C@@H]12 [lupeol],product titer in engineered yeast by UHPLC,[1],increase in the production of lupeol compared with that of the strain SP1 harboring
C[C@H]1[C@H](C)CC[C@]2(C)CC[C@]3(C)C(=CC[C@@H]4[C@@]5(C)CC[C@H](O)C(C)(C)[C@@H]5CC[C@]43C)[C@H]12 [α-amyrin],product titer in engineered yeast by UHPLC,[2],"increase in the titer of α-amyrin and β-amyrin, compared with these of the strain SP1"
CC1(C)CC[C@]2(C)CC[C@]3(C)C(=CC[C@@H]4[C@@]5(C)CC[C@H](O)C(C)(C)[C@@H]5CC[C@]43C)[C@@H]2C1 [β-amyrin],product titer in engineered yeast by UHPLC,[3],higher titer and specific titer of β-amyrin than these of strain SP1 harboring the wild-type GgbAS
